Measurements published in patent publication US11406707B2, “STAT3 phosphorylation during graft-versus-host disease” (H. LEE MOFFITT CANCER CENTER AND RESEARCH INSTITUTE, INC., priority 2014, dated 2022).

Tests used:
[1] = test system: DC-allosensitized T-cell proliferation; test: allo-MLR T-cell proliferation (colorimetric MTS assay, stimulation index); type: cell-based, human; conditions: for T-cell proliferation: day 5
Protocol: Allo-MLRs consisted of T cells stimulated by cytokine-mature moDCs (DC:T-cell ratio 1:30, 1×10^5 T cells per 100 μl medium in a 96-well plate, 37° C.). […] The allogeneic moDC stimulators were matured with a cytokine cocktail and terminally differentiated, eliminating the need for irradiation [Betts, B. C., et al. (2011) Blood 118, 5330-5339]. T-cell proliferation was quantified by a colorimetric assay (CellTiter 96 AQueous One Solution Cell Proliferation Assay [MTS]; Promega, Madison, Wis.) on day 5, per the manufacturer's instructions, with absorbance quantified at 490 nm [Betts, B. C., et al. (2011) Blood 118, 5330-5339]. The stimulation index was calculated by dividing the OD of the allo-MLR by the OD of T cells alone. PHA-stimulated T cells served as a positive control. Identical allo-MLRs were cultured with CAS 285986-31-4, to determine the dose-response effect of STAT5 inhibition on allostimulated T-cell growth. For these initial experiments, the cultures were analyzed on day 4 because of the early rapid T-cell proliferation among the STAT5 inhibitor-treated wells. The stimulation index was determined as described.

T cells = test: T-cell viability by Live/Dead staining in treated allo-MLRs; type: cell-based, human
Protocol: Fluorochrome-conjugated mouse anti-human mAbs included anti-CD3, -CD4, -CD8, -CD25, -CD45RO, -CD107a, -CD127, -Foxp3, -pSTAT3/pY705, -pSTAT5/pY694, -IFN-, and -IL-17A (BD Biosciences, San Jose, Calif. USA; eBioscience; San Diego, Calif., USA; Invitrogen; Carlsbad, Calif., USA). Viability was assessed by Live/Dead staining (Invitrogen). Live events were acquired on FACSCalibur or LSRII (BD Biosciences) flow cytometers (FlowJo software, ver. 7.6.4; TreeStar, Ashland, Oreg., USA). Gates were defined by appropriate isotype controls. Naive T-cell sorting was performed on the FACSVantageDiVa (BD Biosciences). Where indicated, CD4^+ T cells were purified by magnetic-bead negative selection (Miltenyi Biotec, Auburn, Calif., USA).

STAT3 = target: T1, STAT3 (Homo sapiens, UniProt P40763); test: IL-6-pulsed STAT3 phosphorylation in alloactivated T cells (flow cytometry); type: cell-based
T1 construct: endogenous in cells; host or cells: primary human T cells from healthy-donor PBMC, allostimulated by monocyte-derived dendritic cells
Source text: To confirm selective STAT3 inhibition, T cells were first briefly allostimulated by moDCs (DC:T cell ratio 1:30) and then pulsed with the relevant STAT3- or -5-dependent cytokine in the presence or absence of S3I-201. The 3-day exposure to allogenic moDCs allows the responding T cells to increase CD25 expression and capacity to receive IL-2 signaling, while resting or stimulated T cells phosphorylate STAT3 in response to IL-6 [Betts, B. C., et al. (2011) Blood 118, 5330-5339]. DC-allostimulated T cells (1×10^6) were then exposed to S3I-201 (50 or 100 μM) or DMSO for 4 h in serum-free RPMI (Corning Cellgro) to reduce background phosphorylation, followed by a 15 min pulse with IL-6 (4000 IU/ml) or -2 (50 IU/ml). T-cell STAT phosphorylation was determined by surface staining for CD3, followed by fixation (CytoFix; BD Biosciences), permeabilization with cold methanol, and intracellular staining for STAT3 and -5. The phosphorylated STAT3 and -5 geometric MFI ratio was calculated by dividing the geometric MFI of the cytokine-pulsed cells by the geometric MFI of the corresponding fluorochrome isotype.

RORgammaT = RORgammaT expression by RT-PCR in allostimulated CD4+ T-cells; type: cell-based, human; conditions: S3I-201 alone, 5 days
Protocol: To optimize the detection of RORgammaT expression, CD4+ T-cells were isolated by magnetic bead negative selection (Miltenyi Biotec, Auburn, Calif. USA). […] (2011) Blood 118:5330-9; Betts, B C, et al. (2013) J Leukoc Biol. 2014 95(2):205-13; Betts, B C, et al. (2011) Blood 118:5340-3]. […] After the 5 day culture, the T-cells were harvested. Total RNA was extracted using TRIZOL (Life Technologies) according to manufacturer instructions. […] RT-PCR was carried out on an ABI 7900 instrument (Applied Biosystems) and performed [Ratajewski, M, et al. (2012) J Immunol 189:3034-42] with some modification using SYBR® Green PCR Master Mix (Life Technologies) as follows: 10 minutes at 95° C. and then 45 cycles each at 95° C. for 15 seconds, 59° C. for 45 seconds, and 72° C. for 10 seconds. The following primers were used: RORgammaT forward [NT] ID NO:7) and reverse […] NO:8); GAPDH forward [NT] ID NO:9) and reverse [NT] ID NO:10). PCR product purity was assessed by dissociation curves. The differences in gene expression were calculated by 2-ΔΔCt in triplicate. Data were normalized to GAPDH expression.

T1 sequence (P40763 whole entry): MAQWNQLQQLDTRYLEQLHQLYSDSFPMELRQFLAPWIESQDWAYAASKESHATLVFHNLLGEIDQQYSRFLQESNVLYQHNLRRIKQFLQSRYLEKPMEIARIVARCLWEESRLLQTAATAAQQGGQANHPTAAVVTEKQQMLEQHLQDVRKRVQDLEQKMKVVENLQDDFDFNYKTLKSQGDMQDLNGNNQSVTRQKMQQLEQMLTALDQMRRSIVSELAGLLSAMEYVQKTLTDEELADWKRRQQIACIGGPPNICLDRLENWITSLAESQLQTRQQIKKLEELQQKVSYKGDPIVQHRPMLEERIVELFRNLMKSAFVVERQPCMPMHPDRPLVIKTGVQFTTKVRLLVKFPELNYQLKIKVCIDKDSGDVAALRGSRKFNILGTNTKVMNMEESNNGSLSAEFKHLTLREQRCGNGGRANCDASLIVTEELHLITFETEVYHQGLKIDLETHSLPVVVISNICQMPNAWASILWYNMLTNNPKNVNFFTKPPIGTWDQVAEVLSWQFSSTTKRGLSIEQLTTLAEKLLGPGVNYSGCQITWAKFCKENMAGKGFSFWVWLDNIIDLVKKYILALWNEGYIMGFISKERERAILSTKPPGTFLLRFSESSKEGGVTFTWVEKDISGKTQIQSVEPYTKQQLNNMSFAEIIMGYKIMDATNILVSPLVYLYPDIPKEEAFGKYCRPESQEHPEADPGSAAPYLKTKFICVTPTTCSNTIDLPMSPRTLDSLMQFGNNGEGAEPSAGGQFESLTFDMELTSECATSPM

SMILES: Cc1ccc(S(=O)(=O)OCC(=O)Nc2ccc(C(=O)O)c(O)c2)cc1 [S3I-201]
- reduction in T-cell proliferation ([1]; S3I-201 50 μM added once day 0, readout day 5): 50%
- T-cell proliferation ([1]; S3I-201 100 μM): complete impairment
- T-cell proliferation ([1]; S3I-201 1 or 10 μM): little effect
- T-cell proliferation in allo-MLRs compared with DMSO ([1]; S3I-201 50 or 100 μM, FIG. 1B): significantly reduced
- T-cell viability (T cells; S3I-201 50 μM): preserved
- T-cell viability (viability staining) (T cells; S3I-201 100 μM): toxicity
- IL-6-mediated STAT3 signaling (STAT3; S3I-201 50 and 100 μM, 4 h, 15 min IL-6 pulse): inhibited
- concentration giving the highest degree of STAT3 inhibition selectivity (STAT3; STAT3 vs STAT5 phosphorylation): 50 µM
- RORgammaT expression compared with DMSO (RORgammaT): significant suppression
